The values that follow come from patent publication US20080113969A1, “COMBINATION THERAPY FOR THE TREATMENT OF PAIN” (priority 2006, published 2008).

In experiment [1] the test system is postoperative pain model in adult male rats. Briefly: Postincisional hypersensitivity model (paw incision, withdrawal threshold to von Frey filaments). It counts as in vivo, rat. The settings on record: intrathecal (i.t.), 24 h after paw incision. The protocol: Animal preparation: Following Animal Care and Use Committee approval, an intrathecal (i.t.) catheter with tip in the lumbar space is inserted as previously described in adult male rats weighing 250 g (Yaksh and Rudy, Physiol Behav. 1976, 7, 1032-1036). One week following the insertion of the i.t. catheter, paw incision surgery is performed as previously described (Brennan et al., Pain 1996, 64, 493-501). Briefly, animals are anesthetized with halothane, and a 1-cm long incision is made in the plantar aspect of the left hind paw starting 0.5 cm from the edge of the heel toward the toe after sterile preparation with 70% ethanol. The plantaris muscle is elevated and incised longitudinally. The wound is closed with 2 mattress sutures of 5.0 silk. Subsequently, withdrawal threshold to von Frey filaments is determined one day after surgery (Chaplan et al., J. Neurosci. Methods, 1994, 53, 55-63). For all testing but pilot dose ranging studies, investigators are blinded to study drug administration. A cut off value of 22 g is used. […]
Single drug injection: For single drug administration, a volume containing 5 μL drug is used, followed by 10 μL of saline. […] Dose response curves are first constructed, and ED40 values for single drugs are then determined at the time of peak effect.
Drug interaction: For the combination of T-62 with morphine and NBQX, two injections are performed since the time of peak effect for morphine and NBQX is 30 min earlier than that of T-62 (T-62 is injected 30 min before drug injections). Paw withdrawal thresholds are determined before surgery, before drug injection, and 30, 60, 90, 120, 150, 180, and 210 min after the second drug injection. […] The dose response curves are then constructed for the combined drugs, and the ED40 values of the combined drugs are calculated at the time point of peak effect. […]
Data analysis: Data are presented as mean ±S.E. Withdrawal threshold data are analyzed by two-way analysis of variance followed by Fisher's LSD test. […] Isobolograms are statistically analyzed by student T test.

Experiment [2] deals with neuropathic pain model in male Sprague-Dawley rats. Briefly: Neuropathic pain model (Chung model, spinal nerve ligation, von Frey withdrawal threshold). It counts as in vivo, rat. The settings on record: Chung model of chronic neuropathic pain, FIG. 8. The text has this:
Spinal Nerve Ligation: After Animal Care and Use Committee approval, male Sprague-Dawley rats (Harlan, Indianapolis, Ind., USA) weighing 180-200 g undergo anesthesia as previously described by Kim and Chung (Pain 1992, 50, 355-363). Briefly, under general anesthesia with inhalational halothane, the left L5 and L6 spinal nerves are identified through a small laminotomy and tightly ligated. Approximately one week later, an intrathecal catheter is placed under general anesthesia by insertion under direct vision of a polyethylene catheter through a small slit in the dura at the cisterna magnum, and advanced 8.5 cm such that the catheter tip resides in the lower lumbar intrathecal space. Animals are studied approximately one week later. Ligation of the lumbar spinal nerves results in a primarily unilateral increase in the sensitivity to light touch on the operated side. Sensitivity is assessed via application of calibrated von Frey filaments. The withdrawal threshold is determined using an up down method as previously described by Chaplan et al. (J. Neurosci. Methods 1994, 53, 55-63).
Experimental Design: Animals receive, at least 4 weeks after spinal nerve ligation surgery, and at least 1 week after intrathecal catheter insertion, single injections of vehicle (β-cyclodextrin) or the drug substance, using a randomized and blinded protocol. Withdrawal thresholds are determined at intervals for up to 20 hr after injection.

The subject of experiment [3] is inflammatory and neuropathic pain. The settings on record: previously demonstrated (Li et al. 2003, Li et al. 2002, Pan et al. 2001); cited from earlier work.

Entries after “also recorded” stand apart in the source; their conditions may differ.

Consider `CN1CC[C@]23c4c5ccc(O)c4O[C@H]2[C@@H](O)C=C[C@H]3[C@H]1C5` [Morphine, morphine, reference compound], for which the “anti-hypersensitivity effect (mechanical hypersensitivity)” value (shortened to “anti-hypersensitivity effect”) in experiment [1] was “reduces mechanical hypersensitivity in a time and dose dependent manner”. For the compound `Nc1sc2c(c1C(=O)c1cccc3ccccc13)CCC2` [formula (Ic)], in experiment [2], the anti-allodynic effect result is reported as “dose-dependent anti-allodynic effects” and the “relative potency among the three enhancers” value is “most potent enhancer of the three agents”. For the compound `Nc1sc2c(c1C(=O)c1ccccc1)CCS2` [formula (Ib)], the anti-allodynic effect result in experiment [2] was “dose-dependent anti-allodynic effects”. In the case of `NS(=O)(=O)c1cccc2c1c([N+](=O)[O-])cc1nc(O)c(O)nc12` [NBQX, 2,3-dihydroxy-6-nitro-7-sulfamoylbenzo(f)quinoxaline, reference compound], in experiment [1], the “anti-hypersensitivity effect” value was “reduces the mechanical hypersensitivity in a time and dose dependent manner”.

Consider `Nc1sc2c(c1C(=O)c1ccc(Cl)cc1)CCCC2` [T-62, (2-amino-4,5,6,7-tetrahydrobenzo[b]thiophen-3-yl)(4-chlorophenyl)methanone], for which the “anti-hypersensitivity effect” value in experiment [1] was “reduced mechanical hypersensitivity in a time dependent manner; also recorded: modest effect”. Moreover, the anti-allodynic effect entry in experiment [2] was “dose-dependent anti-allodynic effects”. In addition, in experiment [3], the “effect on inflammatory and neuropathic pain” value is “reduce inflammatory and neuropathic pain”.
